Test results taken from patent US9796958B2, “Bacterial growth enhancer” (Plant Bioscience Limited, priority 2005, dated 2017).

What was measured:
Type in all cases: cell-based
E. coli = settings: 55Fe-complexed human lactoferrin, tannic acid 50 μg/ml, other compounds 100 μM, BF 2% v/v
Experimental: (§1) L. casei and E. coli were added at around 5×10^6 CFU/ml to triplicate 1 ml serum-SAPI medium containing the additions shown in Table 2, and 2×10^5 cpm/ml of ^55Fe-complexed human lactoferrin. Tannic acid was used at 50 μg/ml, the other compounds were all used at 100 μM, final concentration; BF was used at 2% v/v. Cultures were incubated as described in the legend to FIG. 2, and growth enumerated on MRS agar (L. casei) or Luria agar (E. coli). ^55Fe incorporation was determined by scintillation counting of triplicate washed bacteria cultures.

L. casei = test: Delivery of lactoferrin-complexed 55Fe to bacteria in serum-SAPI; settings: 55Fe-complexed human lactoferrin, tannic acid 50 μg/ml, other compounds 100 μM, BF 2% v/v
Experimental: as §1

LAB = LAB growth response to catecholamines in serum-based media; settings: serum-based media only

Compound | 55Fe incorporation/ml of culture (E. coli) | 55Fe incorporation/ml of culture (L. casei) | Increase in LAB growth (LAB)
O=C(O)/C=C/c1ccc(O)c(O)c1 [Caffeic acid] | 11385 | 29 | –
O=C(/C=C/c1ccc(O)c(O)c1)O[C@@H]1C[C@](O)(C(=O)O)C[C@@H](O)[C@H]1O [Chlorogenic acid] | 7374 | 28 | –
NCCc1ccc(O)c(O)c1 [Dopamine] | 6815 | 48 | around 2 log-fold
NC[C@H](O)c1ccc(O)c(O)c1 [Noradrenaline] | 8542 | 29 | around 2 log-fold
O=C(OC[C@H]1O[C@@H](OC(=O)c2cc(O)c(O)c(OC(=O)c3cc(O)c(O)c(O)c3)c2)[C@H](OC(=O)c2cc(O)c(O)c(OC(=O)c3cc(O)c(O)c(O)c3)c2)[C@@H](OC(=O)c2cc(O)c(O)c(OC(=O)c3cc(O)c(O)c(O)c3)c2)[C@@H]1OC(=O)c1cc(O)c(O)c(OC(=O)c2cc(O)c(O)c(O)c2)c1)c1cc(O)c(O)c(OC(=O)c2cc(O)c(O)c(O)c2)c1 [Tannic acid] | 13952 | 28 | –
Catechin | 3931 | 57 | –
